Experimental data: patent publication US8546440B2, “Substituted bicyclic imidazole derivatives as gamma secretase modulators” (Janssen Pharmaceuticals, Inc., priority 2008, dated 2013)

Key:
Aβ42 = test: Screening for γ-secretase-modulating activity, Method 1: Aβ42 sandwich ELISA in supernatant of SKNBE2 cells carrying APP 695 wild type (Tables 12a, 12b); assay type: cell-based
Protocol: (§1) Screening was carried out using SKNBE2 cells carrying the APP 695—wild type, grown in Dulbecco's Modified Eagle's Medium/Nutrient mixture F-12 (DMEM/NUT-mix F-12) (HAM) provided by Gibco (cat no. 31330-38) containing 5% Serum/Fe supplemented with 1% non-essential amino acids. Cells were grown to near confluency.
(§2) The screening was performed using the assay as described in Citron et al (1997) Nature Medicine 3: 67. Briefly, cells were plated in a 96-well plate at about 10^5 cells/ml one day prior to addition of compounds. Compounds were added to the cells in Ultraculture (Lonza, BE12-725F) supplemented with 1% glutamine (Invitrogen, 25030-024) for 18 hours. The media were assayed by two sandwich ELISAs, for Aβ42 and Aβtotal. Toxicity of the compounds was assayed by WST-1 cell proliferation reagent (Roche, 1 644 807) according to the manufacturer's protocol.
To quantify the amount of Aβ42 in the cell supernatant, commercially available Enzyme-Linked-Immunosorbent-Assay (ELISA) kits were used (Innotest® β-Amyloid(1-42), Innogenetics N.V., Ghent, Belgium). The Aβ42 ELISA was performed essentially according to the manufacturer's protocol. Briefly, the standards (dilutions of synthetic Aβ1-42) were prepared in polypropylene Eppendorf with final concentrations of 8000 down to 3.9 pg/ml (1/2 dilution step). Samples, standards and blanks (100 μl) were added to the anti-Aβ42-coated plate supplied with the kit (the capture antibody selectively recognizes the C-terminal end of the antigen). The plate was allowed to incubate 3 h at 25° C. in order to allow formation of the antibody-amyloid complex. Following this incubation and subsequent wash steps a selective anti-Aβ-antibody conjugate (biotinylated 3D6) was added and incubated for a minimum of 1 hour in order to allow formation of the antibody-Amyloid-antibody-complex. After incubation and appropriate wash steps, a Streptavidine-Peroxidase-Conjugate was added, followed 30 minutes later by an addition of 3,3′,5,5′-tetramethylbenzidine (TMB)/peroxide mixture, resulting in the conversion of the substrate into a coloured product. This reaction was stopped by the addition of sulfuric acid (0.9 N) and the colour intensity was measured by means of photometry with an ELISA-reader with a 450 nm filter.
(§3) To obtain the values reported in Table 12a, the sigmoidal dose response curves were analysed by computerised curve-fitting, with percent of inhibition plotted against compound concentration. A 4-parameter equation (model 205) in XLfit was used to determine the IC50. The top and the bottom of the curve were fixed to 100 and 0, respectively, and the hill slope was fixed to 1. The IC50 represents the concentration of a compound that is required for inhibiting a biological effect by 50% (Here, it is the concentration where Aβ peptide level is reduced by 50%).
(§4) To obtain the values reported in Table 12b, the data are calculated as percentage of the maximum amount of amyloid Beta 42 measured in the absence of the test compound. The sigmoidal dose response curves were analyzed using non-linear regression analysis with percentage of the control plotted against the log concentration of the compound. A 4-parameter equation was used to determine the IC50. The values reported in Table 12b are averaged IC50 values.

Aβtotal = test: Screening for γ-secretase-modulating activity, Method 1: Aβtotal sandwich ELISA in supernatant of SKNBE2 cells carrying APP 695 wild type (Tables 12a, 12b); assay type: cell-based
Protocol: as §1, §2
To quantify the amount of Aβtotal in the cell supernatant, samples and standards were added to a 6E10-coated plate. The plate was allowed to incubate overnight at 4° C. in order to allow formation of the antibody-amyloid complex. Following this incubation and subsequent wash steps a selective anti-Aβ-antibody conjugate (biotinylated 4G8) was added and incubated for a minimum of 1 hour in order to allow formation of the antibody-Amyloid-antibody-complex. After incubation and appropriate wash steps, a Streptavidine-Peroxidase-Conjugate was added, followed 30 minutes later by an addition of Quanta Blu fluorogenic peroxidase substrate according to the manufacturer's instructions (Pierce Corp., Rockford, Ill.).
as §3, §4

[1] = Homo sapiens, Method 1, Table 12a, SKNBE2 cells carrying APP 695 wild type, compounds 18 hours, ELISA, curve top and bottom fixed to 100 and 0, hill slope 1
[2] = Homo sapiens, Table 12b, Method 1, SKNBE2 cells carrying APP 695 wild type, cell supernatant ELISA, averaged IC50 values, percentage of control vs log concentration
[3] = Homo sapiens, Table 12b, Method 1, SKNBE2 cells carrying APP 695 wild type, cell supernatant ELISA, averaged IC50 values
[4] = Method 1, Table 12a, SKNBE2 cells carrying APP 695 wild type, compounds 18 hours, ELISA, curve top and bottom fixed to 100 and 0, hill slope 1
[5] = Table 12b, Method 1, SKNBE2 cells carrying APP 695 wild type, cell supernatant ELISA, averaged IC50 values, percentage of control vs log concentration
[6] = Table 12b, Method 1, SKNBE2 cells carrying APP 695 wild type, cell supernatant ELISA, averaged IC50 values

Compound | IC50 (Aβ42; [1]) | IC50 (Aβ42; [2]) | IC50 (Aβtotal; [1]) | IC50 (Aβtotal; [3]) | IC50 (Aβ42; [4]) | IC50 (Aβ42; [5]) | IC50 (Aβtotal; [4]) | IC50 (Aβtotal; [6])
COc1cc(Nc2cccn3cc(-c4ccc(F)cc4)nc23)ccc1-n1cnc(C)n1 [Compound 6] | 239 nM | 263 nM | > 10 µM | > 10 µM |  |  |  | 
CCc1c(-c2ccc(F)cc2)nc2c(Nc3ccc(-n4cnc(C)c4)c(OC)c3)cccn12 [Compound 23] |  |  |  |  | 25 nM | 22 nM | > 3 µM | > 3.02 µM
COc1cccc(-c2nc3c(Nc4ccc(-n5ccnc5C)cc4)cccn3c2C)c1 [Compound 65] | 782 nM | 661 nM | 27.2 µM | 17.8 µM |  |  |  | 
Cc1ncn(-c2ccc(Nc3cccn4cc(-c5ccccc5C)nc34)nc2)n1 [Compound 82] |  |  |  |  |  | 562 nM |  | > 3.02 µM
Cc1ncn(-c2ccc(Nc3cccn4cc(-c5ccc(F)cc5C)nc34)cc2)n1 [Compound 90] |  | 398 nM |  | > 3.02 µM |  |  |  | 
COc1cc(Nc2cccn3c(C(=O)c4ccc(F)cc4)cnc23)ccc1-n1cnc(C)c1 [Compound 62] | 477 nM | 417 nM | > 10 µM | > 3.02 µM |  |  |  | 
COc1cc(Nc2cccn3cc(-c4ccncc4)nc23)ccc1-n1cnc(C)c1 [Compound 43] |  | > 3020 nM |  | > 3.02 µM |  |  |  | 
COc1cc(Nc2cccn3cc(C(C)(C)C)nc23)ccc1-n1cnc(C)c1 [Compound 9] | 384 nM | 282 nM | > 10 µM | > 10 µM |  |  |  | 
COc1cc(Nc2cccn3cc(-c4ccc(F)cc4)nc23)ccc1-n1ccnc1C [Compound 21] | 263 nM | 204 nM | > 5 µM | > 5.01 µM |  |  |  | 
COc1cc(Nc2cccn3cc(-c4ccc(F)cc4F)nc23)ccc1-n1cnc(C)c1 [Compound 25] | 251 nM | 240 nM | > 10 µM | > 10 µM |  |  |  | 
CCc1cn2cc(C(F)(F)F)cc(Nc3ccc(-n4cnc(C)n4)c(OC)c3)c2n1 [Compound 153] |  | 1900 nM |  | > 3.02 µM |  |  |  | 
CCCCc1nc2c(Nc3ccc(-n4cnc(C)c4)c(OC)c3)cccn2c1CCC [Compound 11] |  |  |  |  | 39 nM | 35 nM | > 3 µM | > 3.02 µM
COc1cc(Nc2cccn3c(-c4cccc(-c5ccccc5)c4)cnc23)ccc1-n1cnc(C)c1 [Compound 61] | 423 nM | 437 nM | > 10 µM | > 10 µM |  |  |  | 
CCCCc1cn2cccc(Nc3ccc(-n4cnc(C)n4)cc3)c2n1 [Compound 76] |  |  |  |  |  | 1950 nM |  | > 10 µM
COc1cc(Nc2cccn3c(CNC=O)c(-c4cccc(F)c4)nc23)ccc1-n1cnc(C)c1 [Compound 100] |  |  |  |  |  | 11 nM |  | > 3.02 µM
COc1cc(Nc2cccn3cc(CN4CCOCC4)nc23)ccc1-n1cnc(C)c1 [Compound 56] | 601 nM | 204 nM | > 10 µM | > 10 µM |  |  |  | 
COc1cc(Nc2cc(C(F)(F)F)cn3cc(Cc4ccc(F)cc4)nc23)ccc1-n1cnc(C)n1 [Compound 146] |  |  |  |  |  | 32 nM |  | > 3.02 µM
COc1cc(Nc2cc(C(F)(F)F)cn3cc(C(=O)O)nc23)ccc1-n1cnc(C)c1 [Compound 156] |  |  |  |  |  | > 3020 nM |  | > 3.02 µM
COc1cc(Nc2cccn3cc(-c4ccc(F)cc4)nc23)ccc1-n1cc(C)nc1C [Compound 20] |  | 871 nM |  | 5.75 µM |  |  |  | 
C=Cc1cn2cc(C(F)(F)F)cc(Nc3ccc(-n4cnc(C)n4)c(OC)c3)c2n1 [Compound 154] |  | > 3020 nM |  | > 3.02 µM |  |  |  | 
CCCc1c(-c2ccc(F)cc2)nc2c(Nc3ccc(-n4cnc(C)c4)c(OC)c3)cccn12 [Compound 24] |  |  |  |  | 24 nM | 20 nM | > 1 µM | > 10 µM
Cc1ncn(-c2ccc(Nc3cccn4c(C)c(-c5ccccc5Cl)nc34)c(F)c2)n1 [Compound 133] |  | 468 nM |  | > 3.02 µM |  |  |  | 
COc1cccc(-c2nc3c(Nc4cnc(-n5cnc(C)c5)nc4)cccn3c2C)c1 [Compound 46] |  |  |  |  | 52 nM | 50 nM | > 3 µM | > 3.02 µM
Cc1ncn(-c2ccc(Nc3cccn4cc(-c5cc(C(F)(F)F)ccc5C)nc34)cn2)n1 [Compound 84] |  |  |  |  |  | 115 nM |  | > 3.02 µM
COc1cc(Nc2cccn3ccnc23)ccc1-n1cnc(C)c1 [Compound 49] | 305 nM | 407 nM | 10 µM | > 10 µM |  |  |  | 

The remaining lines, values ahead:

IC50 (Aβ42; [1]) | IC50 (Aβ42; [2]) | IC50 (Aβtotal; [1]) | IC50 (Aβtotal; [3]) | IC50 (Aβ42; [4]) | IC50 (Aβ42; [5]) | IC50 (Aβtotal; [4]) | IC50 (Aβtotal; [6]) | Compound
190 nM | 174 nM | > 10 µM | > 10 µM |  |  |  |  | COc1ccc(-c2cn3cccc(Nc4ccc(-n5cnc(C)c5)c(OC)c4)c3n2)c(OC)c1 [Compound 37]
31 nM | 31 nM | > 3 µM | > 3.02 µM |  |  |  |  | COc1cc(Nc2cccn3cc(-c4ccccc4C(F)(F)F)nc23)ccc1-n1cnc(C)c1 [Compound 47]
20 nM | 18 nM | > 1 µM | > 3.02 µM |  |  |  |  | COc1cc(Nc2cccn3cc(COc4ccc(F)cc4)nc23)ccc1-n1cnc(C)c1 [Compound 28]
 | 27 nM |  | > 3.02 µM |  |  |  |  | COc1cc(Nc2cccn3c(Cl)c(CC4CCCCC4)nc23)ccc1-n1cnc(C)c1 [Compound 53]
232 nM | 200 nM | > 5 µM | > 5.01 µM |  |  |  |  | COc1cc(Nc2cccn3cc(-c4ccc(F)cc4)nc23)ccc1-n1ncnc1C [Compound 45]
13 nM | 17 nM | > 3 µM | > 3.02 µM |  |  |  |  | COc1cccc(-c2nc3c(Nc4ccc(-n5cnc(C)c5)cc4)cccn3c2C)c1 [Compound 64]
51 nM | 40 nM | > 3 µM | > 3.02 µM |  |  |  |  | COc1cccc(-c2nc3c(Nc4ccc(-n5cnc(C)n5)c(OC)c4)cccn3c2C)c1 [Compound 67]
60 nM | 52 nM | > 3 µM | > 3.02 µM |  |  |  |  | COc1cc(Nc2cccn3cc(-c4cccc(C(F)(F)F)c4)nc23)ccc1-n1cnc(C)c1 [Compound 48]
 | 42 nM |  | > 3.02 µM |  |  |  |  | COc1cc(Nc2cc(C(F)(F)F)cn3cc(COc4ccc(F)cc4)nc23)ccc1-n1cnc(C)n1 [Compound 147]
 | < 110 nM |  | > 3.02 µM |  |  |  |  | COc1cc(Nc2cccn3c(C#N)c(-c4ccc(F)cc4)nc23)ccc1-n1cnc(C)c1 [Compound 58]
 | < 110 nM |  | > 3.02 µM |  |  |  |  | COc1cc(Nc2cccn3c(-c4ccccc4-c4ccccc4)cnc23)ccc1-n1cnc(C)c1 [Compound 60]
58 nM | 49 nM | > 3 µM | > 3.02 µM |  |  |  |  | COc1cc(Nc2cccn3cc(-c4cccc(Cl)c4)nc23)ccc1-n1cnc(C)c1 [Compound 16]
 | 126 nM |  | > 3.02 µM |  |  |  |  | Cc1ccc(C(F)(F)F)cc1-c1cn2cccc(Nc3ccc(-n4ncnc4C)cc3)c2n1 [Compound 75]
64 nM | 55 nM | > 3 µM | > 3.02 µM |  |  |  |  | COc1cc(Nc2cccn3cc(-c4ccccc4)nc23)ccc1-n1cnc(C)c1 [Compound 12]
 | 76 nM |  |  |  |  |  |  | COc1cccc(-c2nc3c(Nc4ccc(-n5cnc(C)c5)c(F)c4)cccn3c2C)c1 [Compound 66]
